Data on twelve molecules can be found in ChEMBL document CHEMBL5126556, “Recent advances in natural anti-obesity compounds and derivatives based on in vivo evidence: A mini-review” (Eur J Med Chem, 2022).

In data set [1] the test system is Mus musculus. In words: Anti-obesity activity in female C57BL/6 mouse model of high-fat diet induced obesity assessed as body weight change administered orally for 20 weeks relative to control. As to conditions: route po. The format is functional.
In data set [2] the target is BDNF/NT-3 growth factors receptor (Homo sapiens, UniProt Q16620). In words: Binding affinity to recombinant human TrkB receptor ECD assessed as dissociation constant.
Data set [3] concerns Mus musculus. Nature of the data set: Anti-obesity activity in male C57BL/6 mouse model of high-fat diet induced obesity assessed as body weight change at 100 mg/kg, po administered once a day for 9 weeks relative to control. The format is functional.
Data set [4] can be described thus: Inhibition of V-ATPase in bovine chromaffin granules incubated for 1 hrs by absorbance based assay. The format is subcellular, Bos taurus, Chromaffin granule.
In data set [5] the test system is Mus musculus. Nature of the data set: Anti-obesity activity in male C57BL/6 mouse model of high-fat diet induced obesity assessed as body weight change at 50 mg/kg, ip administered every other day for 5 weeks relative to control. Type of data set: functional.
In data set [6] the test system is Mus musculus. In words: Anti-obesity activity in male C57BL/6 mouse model of high-fat diet induced obesity assessed as body weight change at 50 mg/kg, po administered once a day for 6 weeks relative to control. The format is functional.
Data set [7] relates to Mus musculus. In words: Anti-obesity activity in male C57BL/6 mouse model of high-fat diet induced obesity assessed as body weight change at 10 mg/kg, po administered once a day for 3 weeks relative to control. The format is functional.
Data set [8] concerns Mus musculus. Nature of the data set: Anti-obesity activity in male C57BL/6 mouse model of high-fat diet induced obesity assessed as body weight change at 0.1 mg/kg, ip administered once a day for 3 weeks relative to control. Type of data set: functional.
Data set [9] can be described thus: Toxicity in po dosed mouse assessed as lethal dose. Type of data set: organism-based. The conditions noted are these: in vivo.
In data set [10] the test system is Mus musculus. In words: Anti-obesity activity in male C57BL/6 mouse model of high-fat diet induced obesity assessed as body weight change at 3 mg/kg, po administered once a day for 8 weeks relative to control. The format is functional.
The subject of data set [11] is Mus musculus. In words: Anti-obesity activity in male C57BL/6 mouse model of high-fat diet induced obesity assessed as body weight change at 20 mg/kg, ip administered twice a week for 12 weeks relative to control. Type of data set: functional.
The test system of data set [12] is Mus musculus. In words: Anti-obesity activity in male C57BL/6 mouse model of high-fat diet induced obesity assessed as body weight change at 30 mg/kg, po administered once a day for 10 weeks relative to control. The format is functional.
Data set [13] has as its system Mus musculus. In words: Anti-obesity activity in high-fat diet induced C57BL/6 obese mouse model assessed as body weight change at 30 mg/kg, po administered once daily for 10 weeks relative to control. The format is functional.
For data set [14], the system named is Mus musculus. Nature of the data set: Anti-obesity activity in high-fat diet induced obesity model of C57BL/6J mouse assessed as body weight loss at 40 mg/kg/day, ip administered once daily for 14 days relative to control. Type of data set: functional. As to conditions: time 14 day.
In data set [15] the test system is Mus musculus. Nature of the data set: Anti-obesity activity in high-fat diet induced obesity model of C57BL/6J mouse assessed as body weight loss at 20 mg/kg/day, po administered once daily for 14 days relative to control. Type of data set: functional. The conditions noted are these: time 14 day.
Data set [16] can be described thus: Acute toxicity in po dosed C57BL/6J mouse assessed as lethal dose. Type of data set: organism-based. As to conditions: in vivo.
In data set [17] the target is T1, Dihydrolipoyllysine-residue acetyltransferase component of pyruvate dehydrogenase complex, mitochondrial (Homo sapiens, UniProt P10515).
T1 sequence (P10515 whole entry): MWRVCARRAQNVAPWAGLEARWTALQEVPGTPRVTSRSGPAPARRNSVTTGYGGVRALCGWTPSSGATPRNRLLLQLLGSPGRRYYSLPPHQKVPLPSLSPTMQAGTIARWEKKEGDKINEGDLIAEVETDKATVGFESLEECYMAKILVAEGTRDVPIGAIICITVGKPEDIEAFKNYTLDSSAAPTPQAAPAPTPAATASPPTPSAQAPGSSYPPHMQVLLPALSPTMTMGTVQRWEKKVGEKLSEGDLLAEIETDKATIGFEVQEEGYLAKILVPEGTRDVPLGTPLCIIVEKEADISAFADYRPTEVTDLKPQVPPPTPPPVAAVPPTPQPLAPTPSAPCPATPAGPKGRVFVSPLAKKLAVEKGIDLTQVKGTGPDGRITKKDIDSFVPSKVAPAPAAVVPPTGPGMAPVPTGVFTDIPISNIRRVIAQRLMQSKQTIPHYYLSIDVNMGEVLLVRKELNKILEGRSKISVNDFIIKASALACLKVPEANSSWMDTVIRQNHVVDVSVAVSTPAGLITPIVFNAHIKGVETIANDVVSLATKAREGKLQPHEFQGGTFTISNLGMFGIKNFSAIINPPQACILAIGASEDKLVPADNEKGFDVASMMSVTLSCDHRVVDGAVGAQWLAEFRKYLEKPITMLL
Nature of the data set: Binding affinity to recombinant GFP fused […] (unknown origin) by Lip-SMap analysis.

The test system of data set [18] is Mus musculus. In words: Anti-obesity activity in male C57BL/6 mouse model of high-fat diet induced obesity assessed as body weight change at 2.5 mg/kg, ip administered once a day for 8 weeks relative to control. Type of data set: functional.
The subject of data set [19] is Mus musculus. Nature of the data set: Anti-obesity activity in male C57BL/6 mouse model of high-fat diet induced obesity assessed as body weight change at 1 mg/kg, po administered once a week for 7 weeks relative to control. Type of data set: functional.
For data set [20], the system named is Mus musculus. In words: Anti-obesity activity in male C57BL/6 mouse model of high-fat diet induced obesity assessed as body weight change at 0.002 mg/kg, ip administered once a day for 8 weeks relative to control. The format is functional.
Data set [21] deals with Mus musculus. Nature of the data set: Anti-obesity activity in male C57BL/6 mouse model of high-fat diet induced obesity assessed as body weight change at 1.25 mg/kg, ip administered once a day for 21 days relative to control. As to conditions: time 21 day. Type of data set: functional.
Data set [22] concerns the target T2, Pancreatic triacylglycerol lipase (Sus scrofa, UniProt P00591).
T2 sequence (P00591 whole entry): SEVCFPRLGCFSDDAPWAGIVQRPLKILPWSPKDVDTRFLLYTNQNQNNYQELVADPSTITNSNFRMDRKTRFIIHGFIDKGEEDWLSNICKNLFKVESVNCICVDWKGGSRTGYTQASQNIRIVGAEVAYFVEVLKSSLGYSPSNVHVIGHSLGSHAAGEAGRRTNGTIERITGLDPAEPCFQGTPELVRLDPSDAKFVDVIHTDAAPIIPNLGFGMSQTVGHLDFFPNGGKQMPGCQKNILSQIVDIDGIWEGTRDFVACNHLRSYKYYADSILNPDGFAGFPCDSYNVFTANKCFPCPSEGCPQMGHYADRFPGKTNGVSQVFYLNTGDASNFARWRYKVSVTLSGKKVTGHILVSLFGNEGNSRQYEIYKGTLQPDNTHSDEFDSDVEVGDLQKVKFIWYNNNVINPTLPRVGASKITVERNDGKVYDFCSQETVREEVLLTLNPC
Nature of the data set: Inhibition of porcine pancreatic lipase using trioleate as substrate assessed as inhibition of substrate hydrolysis measured for 10 mins.

pIC50, pKd: −log10 of the molar value.

Sequence of BDNF/NT-3 growth factors receptor (Q16620 whole entry, the tested form may be a part): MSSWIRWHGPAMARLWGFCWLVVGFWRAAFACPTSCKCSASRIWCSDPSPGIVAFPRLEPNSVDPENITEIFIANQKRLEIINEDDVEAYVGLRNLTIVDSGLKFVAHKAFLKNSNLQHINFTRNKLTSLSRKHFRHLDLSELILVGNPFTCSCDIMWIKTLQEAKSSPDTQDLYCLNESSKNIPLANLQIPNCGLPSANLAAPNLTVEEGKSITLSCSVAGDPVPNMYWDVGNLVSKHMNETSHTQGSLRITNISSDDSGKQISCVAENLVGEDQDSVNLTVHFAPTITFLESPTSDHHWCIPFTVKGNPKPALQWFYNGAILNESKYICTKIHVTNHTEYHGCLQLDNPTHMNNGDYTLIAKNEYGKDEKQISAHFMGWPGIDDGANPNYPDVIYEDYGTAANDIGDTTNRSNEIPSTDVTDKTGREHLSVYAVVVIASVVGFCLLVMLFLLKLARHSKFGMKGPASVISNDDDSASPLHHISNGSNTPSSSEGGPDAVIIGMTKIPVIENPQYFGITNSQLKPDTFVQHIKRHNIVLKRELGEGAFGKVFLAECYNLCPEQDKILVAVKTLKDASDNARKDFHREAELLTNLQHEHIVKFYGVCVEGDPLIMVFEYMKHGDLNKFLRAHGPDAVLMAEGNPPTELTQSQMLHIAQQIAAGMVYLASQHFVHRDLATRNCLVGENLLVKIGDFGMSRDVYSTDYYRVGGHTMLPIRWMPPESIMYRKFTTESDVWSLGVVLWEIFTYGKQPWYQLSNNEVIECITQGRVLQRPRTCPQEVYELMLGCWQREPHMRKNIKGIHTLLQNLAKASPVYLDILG

As a reminder, the pKd is the negative decadic logarithm of the Kd, by convention in mol/L. For the molecule `O=c1cc(-c2ccccc2)oc2c(O)c(O)ccc12` [7,8-DIHYDROXYFLAVONE], in the data set with Mus musculus [1], the Activity stood at 72.2%. In [2], the pKd was 8.00.

By pIC50 is commonly meant −log10 of the IC50, conventionally taken in molar units. Regarding `COc1cc2c(O)c3c(c(-c4ccc5c(c4)OCO5)c2cc1OC)C(=O)OC3` [DIPHYLLIN], in the data set with Mus musculus [3], the Activity is recorded as 13.7%. In [4], the pIC50 was 7.77.

`O=Cc1c(-c2nc3ccccc3c(=O)[nH]2)[nH]c2ccccc12`: in the data set with Mus musculus [5], the Activity is on record as -11.8%. As for `C[C@H](CC(=O)C[C@@H](C)[C@H]1C[C@H](O)[C@@]2(C)C3=C(C(=O)C[C@]12C)[C@@]1(C)CCC(=O)C(C)(C)[C@@H]1C[C@@H]3O)C(=O)O` [GANODERIC ACID A], in the data set with Mus musculus [6], the Activity was determined as 17.4%.

Broadly, the LD50 is the dose expected to kill half of the subjects tested. Consider `CC1=C(O)C(=O)C=C2C1=CC=C1[C@@]2(C)CC[C@@]2(C)[C@@H]3C[C@](C)(C(=O)O)CC[C@]3(C)CC[C@]12C` [CELASTROL], for which the Activity is -45.4% in the data set on Mus musculus [7], -27.7% in the data set on Mus musculus [8] and 1.8% in the data set on Mus musculus [10]. In [9], the LD50 came out at 20.5 mg/kg. Take `CC1(C)CC[C@]2(C(=O)O)CC[C@]3(C)C(=CC[C@@H]4[C@@]5(C)C[C@@H](O)[C@H](O)C(C)(C)[C@@H]5CC[C@]43C)[C@@H]2C1` [MASLINIC ACID]: the Activity with Mus musculus [11] is reported as 18.2%. As for `O=c1oc2cc(O)ccc2c2ccc(O)cc12`, the Activity in the data set with Mus musculus [12] is reported as 30.8%; in the data set on Mus musculus [13] it was 42.7%.

Consider `CC1(C)[C@@H](O)C(O)=C[C@]2(C)[C@H]3C(=O)C=C4[C@@H]5C[C@@](C)(C(=O)O)CC[C@]5(C)CC[C@@]4(C)[C@]3(C)CC[C@@H]12`, for which the Activity with Mus musculus [14] worked out at 20%; in the data set on Mus musculus [15], 26%. Also, in [16], the LD50 is 940 mg/kg.

Take `CC(C)=CCC[C@]1(C)[C@@H](CC=C(C)C)C[C@]2(CC=C(C)C)C(=O)C(CC=C(C)C)=C(O)[C@@]1(C(=O)C(C)C)C2=O`: the pKd in [17] is 6.24. The Activity in the data set with Mus musculus [18] is recorded as -13.7%.

As to `O=C1N[C@@H]2C(=C[C@H](O)[C@@H](O)[C@H]2O)c2cc3c(c(O)c21)OCO3` [NARCICLASINE], the Activity in the data set with Mus musculus [19] is given as 23.6%.

For the molecule `CC1=C(CO)C(=O)O[C@@H]([C@@H](C)[C@H]2CC[C@H]3[C@@H]4C[C@H]5O[C@]56[C@@H](O)C=CC(=O)[C@]6(C)[C@H]4CC[C@]23C)C1` [WITHAFERIN A], the results for the Activity in the data set on Mus musculus [20] and with Mus musculus [21] were 30.5% and 0%, respectively.

As for `CCCCC/C=C\C/C=C\C[C@@H](C[C@@H]1OC(=O)[C@H]1CCCCCC)OC(=O)[C@H](CC(C)C)NC=O`, in data set [22], the pIC50 was 6.85.
